The text below walks through data of PMC7226045, “Ensartinib (X-396) Effectively Modulates Pharmacokinetic Resistance Mediated by ABCB1 and ABCG2 Drug Efflux Transporters and CYP3A4 Biotransformation Enzyme” (Cancers, 2020).

The test deals with T1, CYP3A5 (Homo sapiens, UniProt P20815).
T1 construct: purchased Thermo Fisher Scientific; host or cells: insect microsomal fractions
The test is described as follows: Vivid CYP screening kit, recombinant CYP3A5. The conditions noted are these: recombinant enzyme, 15 min incubation, absolute IC50; read-out: CYP3A5 inhibition IC50. The format is biochemical. As to the method: CYP inhibitory assay was performed as described previously. Experiments were performed with commercial Vivid CYP screening kits containing insect microsomal fractions enriched with a specific human CYP isoform, human CYP reductase, and in some cases, human cytochrome b5. The potential inhibitory activity of ensartinib toward CYP1A2, CYP2B6, CYP2C8, CYP2C9, CYP2C19, CYP2D6, CYP3A4, and CYP3A5 (i.e., all CYP isoforms that drug regulatory authorities recommend for testing of inhibition by new molecular entities) was then examined. Experiments were performed using a kinetic mode in black 96-well plates according to the manufacturer´s instructions. Briefly, 5-point serial dilutions of ensartinib or the model inhibitor recommended by the manufacturer in buffer were transferred into the wells, then a master mix consisting of a CYP isoenzyme with an NADPH regeneration system in buffer was added. After a 10 min pre-incubation, the reaction was initiated by adding a mixture of NADP^+ and the appropriate Vivid substrate, after which fluorescence was measured at 1 min intervals for 60 min using an Infinite M200 Pro microplate reader (Tecan, Männedorf, Switzerland). The enzyme concentration and incubation interval used for data evaluation (15 min) placed the systems within the linear regions of the appropriate reaction velocity curves. […]

T1 sequence (P20815 whole entry): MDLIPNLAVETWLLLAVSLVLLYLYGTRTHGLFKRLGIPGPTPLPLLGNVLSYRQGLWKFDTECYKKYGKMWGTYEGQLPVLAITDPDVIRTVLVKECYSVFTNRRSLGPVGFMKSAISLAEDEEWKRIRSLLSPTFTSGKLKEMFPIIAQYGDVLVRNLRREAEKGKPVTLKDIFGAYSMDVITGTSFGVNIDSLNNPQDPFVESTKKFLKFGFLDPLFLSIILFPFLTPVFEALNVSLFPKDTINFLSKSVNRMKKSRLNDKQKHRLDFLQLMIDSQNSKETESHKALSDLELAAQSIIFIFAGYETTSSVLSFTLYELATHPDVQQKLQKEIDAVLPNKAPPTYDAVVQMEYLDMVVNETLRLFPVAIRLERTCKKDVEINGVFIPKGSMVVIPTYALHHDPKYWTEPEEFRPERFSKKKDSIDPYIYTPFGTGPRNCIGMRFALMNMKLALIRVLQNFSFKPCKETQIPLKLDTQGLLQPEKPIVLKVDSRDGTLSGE

Regarding `C[C@@H]1CN(C(=O)c2ccc(NC(=O)c3cc(O[C@H](C)c4c(Cl)ccc(F)c4Cl)c(N)nn3)cc2)C[C@H](C)N1` [ensartinib, Ensartinib], the 50% inhibitory concentration (IC50) was 19.1 µM.

As usually defined, the IC50 is the point on the concentration scale where inhibition reaches its midpoint.
